Assay results reported in patent US20250320246A1, “3-AZASTEROID COMPOUNDS FOR THE TREATMENT OF DISEASES RELATED TO MITROCHONDRIAL FUNCTION” (NZP UK LIMITED, priority 2022, published 2025).

Experiments:
[1] = tested on: sporadic PD patient fibroblasts; assay: Mitochondrial membrane potential (MMP, TMRM) in sporadic PD patient fibroblasts; format: cell-based, human; conditions: Homo sapiens, Fibroblast, 24 h, 3 sporadic PD patient fibroblasts; for EC50: 8-point range 0.06 nM-300 nM; for Emax: max response with highest dose of compound (300 nM), read-out: MMP % of vehicle, top %; for activity at 60 pM: max response with lowest dose of compound (0.06 nM), read-out: MMP % of vehicle, bottom %
Description: (§1) Primary fibroblast cells were cultured continuously in Glucose based medium (high glucose (4500 mg/L) Dulbecco's Modified Eagle's medium (DMEM; Sigma-Aldrich) supplemented with 10% fetal bovine serum (Sigma-Aldrich), 100 IU/mL penicillin, 100 μg/mL streptomycin (Lonza), 1 mM sodium pyruvate (Sigma-Aldrich) and 50 μg/mL uridine (Sigma-Aldrich)). Unless otherwise stated, 24 hours prior to analysis, the Glucose based medium was exchanged for Galactose based medium (glucose-free DMEM (Gibco) with the same supplementation and in addition, 5 mM galactose (Sigma-Aldrich)). All cells were assessed between passage 6-10.
Fibroblasts were cultured and plated into a greiner black 384 μClear® plate at a concentration of 1000 cells per well in 50 μl of media volume. The plates are left overnight in an incubator to allow the fibroblasts to adhere to the plate surface. The following morning the Glucose based medium is replaced with 25 μl of Galactose based medium. The plates were then dosed with the compounds using an ECHO® 550 liquid handling system. The wells were dosed to provide an 8-point concentration range of 0.06 nM-300 nM of compound. After dosing the wells are topped up with a further 25 μl of Galactose based medium and then left in an incubator for 24 hours. After 24 hours, the medium is removed from the wells and replaced with 25 μl phenol free Minimal essential medium supplemented with 10% FBS, 1% Penicillin-streptomycin, 1% sodium pyruvate, 0.1% uridine, 1% non-essential amino acids and 1% MEM vitamins with 80 nM TMRM (Sigma) and 10 μM Hoechst Stain (Sigma). The plate is returned to the incubator for another hour after which the stain medium is removed and replaced with 25 μl Phenol free MEM. The plate is then imaged using an IN Cell high content microscope (GE Healthcare) with fields of view per well in 2 channels, Cy3 excitation 542 nm, emission 604-64 nm; and the DAPI excitation 350 nm, emission 450-55 nm at 37° C. with CO2. After imaging the plate is disposed of and the images are Data mined using the INCell developer Toolkit (GE Healthcare).
After the assays had been repeated in triplicate per line and compound the data was then inputted into Graph pad Prism 7 software suite where a dose response curve is generated using the default “[Agonist] vs response(three parameters)” equation. […]

[2] = tested on: sporadic PD patient fibroblasts; assay: Cellular ATP levels in sporadic PD patient fibroblasts, full ATP assay; format: cell-based, human; conditions: Homo sapiens, Fibroblast, 24 h, 3 sporadic PD patient fibroblasts; for EC50: 8-point range 0.06 nM-300 nM; for Emax at 0.3 µM: max response with highest dose of compound (300 nM), read-out: ATP % of vehicle, top %; for activity at 60 pM: max response with lowest dose of compound (0.06 nM), read-out: ATP % of vehicle, bottom %
Description: as §1
The ATP protocol is generally as described in Mortiboys et al 2008. Briefly, fibroblasts were cultured as and plated into white 384 well plates at a concentration of 5000 cells per well in 50 μl of media volume. The plates are left overnight in an incubator to allow the fibroblasts to adhere to the plate surface. The following morning the Glucose based medium is replaced with 25 μl of Galactose based medium. The plates were then spiked with the compounds using a ECHO 550 liquid handling system. The wells were dosed to provide an 8-point concentration range of 0.06 nM-300 nM of compound. After dosing the wells are topped up with a further 25 μl of Galactose based medium and then left in an incubator for 24 hours. Following this incubation, the medium is removed from the plate and the wells are washed twice with sterile PBS. The wells are filled with 25 μl of Sterile PBS followed by 12.5 μl of Lysis solution from the ATPlite™ Luminescence ATP detection assay system (Perkin Elmer), including 16 cell free wells to use as blank controls. The plate is then placed on a rotary shaker for 5 mins at 700 rpm. Following the shaking 12.5 μl of ATP substrate solution (Perkin Elmer) is added to each well and a further 5 min of shaking. The plate is then placed in darkness for 10 minutes prior to reading. Using a PHERAStar® plate reader, luminescence intensity is recorded. Following the ATP assay the plates are immediately assayed for DNA content in a CyQUANT® assay.
Immediately following The ATP assay DNA content is assessed with the CyQUANT® NF Cell Proliferation Assay Kit (ThermoFisher). CyQUANT® buffer is prepared immediately before the assay and is comprised of 1 μl CyQUANT® dye per ml×1 HBSS solution. 12.5 μl of CyQUANT® buffer is added to each well. Plate left in incubator for 1 hour then read on a PHERAStar© Plate reader with excitation at 497 nm and emission at 520 nm.
ATP Quantification for each well is determined using the following formula: […]
After the assays had been repeated in triplicate per line and compound the data was then inputted into Graph pad Prism 7 software suite where a dose response curve is generated using the default “[Agonist] vs response(three parameters)” equation.
From this EC50 values, lowest response and maximal response were taken and used to calculate the Geometric mean between the 5 different lines assessed.

Row | Structure (SMILES) | EC50 [1] | Emax [1] | activity at 60 pM [1] | EC50 [2] | Emax at 0.3 µM [2] | activity at 60 pM [2]
1 | C[C@H](CCCC(=O)O)[C@H]1CC[C@H]2[C@@H]3[C@@H](O)C[C@@H]4CN(C(=O)CO)CC[C@]4(C)[C@H]3CC[C@]12C [Compound 40b, N-Glycolyl-3-aza-7β-hydroxy-25-homo-5β-cholan-25-oic acid] | 26.1 nM | 131% | 95.3% | 19.5 nM | 130% | 101%
2 | CC(C)[C@H](N)C(=O)N1CC[C@@]2(C)[C@H](C[C@H](O)[C@@H]3[C@@H]2CC[C@]2(C)[C@@H]([C@H](C)CCCC(=O)O)CC[C@@H]32)C1 [Compound 41b, N-[(2S)-2-Amino-3-methylbutanoyl]-3-aza-7β-hydroxy-25-homo-5β-cholan-25-oic acid hydrotrifluoroacetate] |  |  | 84.6% |  |  | 78.9%
3 | CC[C@H](C)[C@H](N)C(=O)N1CC[C@@]2(C)[C@H](C[C@H](O)[C@@H]3[C@@H]2CC[C@]2(C)[C@@H]([C@H](C)CCC(=O)O)CC[C@@H]32)C1 [Compound 42a, N-[(2S,3S)-2-Amino-3-methylpentanoyl]-3-aza-7β-hydroxy-5β-cholan-24-oic acid hydrotrifluoroacetate] | 130 nM | 69.2% | 71.3% | 134 nM | 64.5% | 89.6%
4 | CC[C@H](C)[C@H](N)C(=O)N1CC[C@@]2(C)[C@H](C[C@H](O)[C@@H]3[C@@H]2CC[C@]2(C)[C@@H]([C@H](C)CCCC(=O)O)CC[C@@H]32)C1 [Compound 42b, N-[(2S,3S)-2-Amino-3-methylpentanoyl]-3-aza-7β-hydroxy-25-homo-5β-cholan-25-oic acid hydrotrifluoroacetate] | 5.1 nM | 96.6% | 92.2% | 25.4 nM | 98.5% | 91.3%
5 | CC(C)C[C@H](N)C(=O)N1CC[C@@]2(C)[C@H](C[C@H](O)[C@@H]3[C@@H]2CC[C@]2(C)[C@@H]([C@H](C)CCC(=O)O)CC[C@@H]32)C1 [Compound 43a, N-[(2S)-2-Amino-4-methylpentanoyl]-3-aza-7β-hydroxy-5β-cholan-24-oic acid hydrotrifluoroacetate] | 0.2 nM | 100% | 84.1% | 8.9 nM | 86% | 90.2%
6 | CC(C)C[C@H](N)C(=O)N1CC[C@@]2(C)[C@H](C[C@H](O)[C@@H]3[C@@H]2CC[C@]2(C)[C@@H]([C@H](C)CCCC(=O)O)CC[C@@H]32)C1 [Compound 43b, N-[(2S)-2-Amino-4-methylpentanoyl]-3-aza-7β-hydroxy-25-homo-5β-cholan-25-oic acid hydrotrifluoroacetate] | 1.1 nM | 103% | 86.9% |  | 80.6% | 
7 | C[C@H](CCC(=O)O)[C@H]1CC[C@H]2[C@@H]3[C@@H](O)C[C@@H]4CN(C(=O)[C@@H](N)Cc5c[nH]c6ccccc56)CC[C@]4(C)[C@H]3CC[C@]12C [Compound 44a, N-[(2S)-2-Amino-3-(1H-indol-3-yl)propanoyl]-3-aza-7β-hydroxy-5β-cholan-24-oic acid hydrotrifluoroacetate] | 0.09 nM | 102% | 73.5% | 0.23 nM | 122% | 65.1%
8 | C[C@H](CCCC(=O)O)[C@H]1CC[C@H]2[C@@H]3[C@@H](O)C[C@@H]4CN(C(=O)[C@@H](N)Cc5c[nH]c6ccccc56)CC[C@]4(C)[C@H]3CC[C@]12C [Compound 44b, N-[(2S)-2-Amino-3-(1H-indol-3-yl)propanoyl]-3-aza-7β-hydroxy-25-homo-5β-cholan-25-oic acid hydrotrifluoroacetate] | 0.11 nM | 98.8% | 77.8% |  | 98.4% | 
9 | C[C@H](CCC(=O)O)[C@H]1CC[C@H]2[C@@H]3[C@@H](O)C[C@@H]4CN(C(=O)[C@@H](N)Cc5ccc(O)cc5)CC[C@]4(C)[C@H]3CC[C@]12C [Compound 45a, N-[(2S)-2-Amino-3-(4-hydroxyphenyl)propanoyl]-3-aza-7β-hydroxy-5β-cholan-24-oic acid hydrotrifluoroacetate] | 0.18 nM | 95.1% | 82.3% | 0.25 nM | 97.2% | 83.8%
